These results are taken from ChEMBL document CHEMBL1201862, “PubChem BioAssay data set” (2004).

Each structure is given as a SMILES string.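 Assay format: 96-well plates, 48-hour exposure. GI50 marks 50% less growth.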 Active and inactive are the calls of the source. Rule as the data show it: active = GI50 up to about 1.1 µM and inactive = higher. Some results are limits rather than exact numbers.

Test systems include OVCAR-4; K562; KM12; HCT-15; UACC-62; ACHN; RPMI-8226; A498; SF-295; MOLT-4; NCI-H522; SK-MEL-28; A549; NCI-H460; U-251; SK-MEL-2; SF-539; SR; HL-60; HCT-116.
Experiment in all cases: NCI-60 cell line screen, 48 h

`COc1ccc(/C=C/C(=O)C(C)(C)C)cc1OC`: the GI50 in the assay with OVCAR-4 is 79.6 µM (inactive); in the assay with K562, 36.7 µM (inactive); in the assay on KM12 it was 43.9 µM (inactive); with HCT-15 it was 38.5 µM; in the assay on UACC-62, 52.6 µM (inactive); in the assay on ACHN, > 100 µM (inactive). The GI50 is 47.4 µM (inactive) in the assay with RPMI-8226; > 100 µM (inactive) in the assay on A498; > 100 µM (inactive) in the assay on SF-295; 59.6 µM (inactive) in the assay on MOLT-4; 34.8 µM (inactive) in the assay on NCI-H522; 74.6 µM (inactive) in the assay on SK-MEL-28. Besides, the GI50 in the assay on A549, in the assay on NCI-H460 and with U-251 was > 100 µM (inactive) throughout.

For `Cc1cn(C2CC(n3cc(Cn4ccc(=O)[nH]c4=O)nn3)C(CO)O2)c(=O)[nH]c1=O` (configuration not stated), the GI50 was > 100 µM (inactive) in the assay on OVCAR-4; > 100 µM (inactive) in the assay with KM12; more than 100 µM in the assay on HCT-15; > 100 µM (inactive) in the assay with UACC-62; > 100 µM (inactive) with ACHN; > 100 µM (inactive) in the assay on SK-MEL-2. Moreover, the GI50 in the assay on RPMI-8226 was > 100 µM (inactive); with SF-539 it was > 100 µM (inactive); in the assay on SR it was < 0.01 µM (active); in the assay on A498, > 100 µM (inactive); with SF-295, > 100 µM (inactive); in the assay on MOLT-4, > 100 µM (inactive). Further, the GI50 in the assay on HL-60 was 95.1 µM (inactive); in the assay with SK-MEL-28 it was > 100 µM (inactive); in the assay on A549, > 100 µM (inactive); in the assay with HCT-116, > 100 µM (inactive); with U-251, > 100 µM (inactive).

For the compound `Cc1ccc(/N=N/C(C2=NC(=O)CS2)c2nc3ccccc3[nH]2)cc1` (configuration not stated), the GI50 with OVCAR-4 was > 100 µM (inactive); in the assay on K562, > 100 µM (inactive); in the assay on KM12, > 100 µM (inactive); in the assay with HCT-15 it was more than 100 µM; in the assay on UACC-62, > 100 µM (inactive); in the assay on ACHN, > 100 µM (inactive). Moreover, the GI50 in the assay on RPMI-8226 was > 100 µM (inactive); in the assay on SF-539, 54.6 µM (inactive); in the assay on SR it was > 100 µM (inactive); with A498, > 100 µM (inactive); in the assay on SF-295, > 100 µM (inactive); in the assay with MOLT-4, 20.7 µM (inactive). Besides, the GI50 in the assay with HL-60, in the assay with NCI-H522, in the assay on SK-MEL-28, in the assay with A549, in the assay on HCT-116 and with NCI-H460 was > 100 µM (inactive) in each case. The GI50 with U-251 is > 100 µM (inactive).

In the case of `CN1CCC(C(=O)NNc2ccccc2)CC1`, the GI50 in the assay with OVCAR-4 is 13.3 µM (inactive); with K562, 0.931 µM (active); with KM12 it was 3.15 µM (inactive); in the assay on HCT-15, 1.61 µM; in the assay on UACC-62, 2.48 µM (inactive); in the assay on ACHN, 2.66 µM (inactive). The GI50 in the assay on SK-MEL-2 was 9.02 µM (inactive); in the assay on RPMI-8226, 24.8 µM (inactive); in the assay on SF-539 it was 7.87 µM (inactive); in the assay on SR it was 7.43 µM (inactive); with A498 it was > 100 µM (inactive); in the assay with SF-295, 2.12 µM (inactive). Moreover, the GI50 is 1.23 µM (inactive) in the assay with MOLT-4; 2.65 µM (inactive) in the assay with HL-60; 3.27 µM (inactive) in the assay with NCI-H522; 17.1 µM (inactive) in the assay on SK-MEL-28; 12.2 µM (inactive) in the assay on A549; > 43.4 µM (inactive) with HCT-116. The GI50 in the assay on NCI-H460 was 5.62 µM (inactive); with U-251 it was > 17.7 µM (inactive).

On to `C#CCCCCC#Cc1ccccc1C(=O)OC`, for which the GI50 in the assay on OVCAR-4 is 58.9 µM (inactive); in the assay with K562, 9.93 µM (inactive); in the assay with KM12, 58.2 µM (inactive); in the assay with HCT-15, 63.8 µM; with UACC-62, 32.7 µM (inactive); in the assay with ACHN, 64.3 µM (inactive). Further, the GI50 in the assay on SK-MEL-2 was 39.7 µM (inactive); with RPMI-8226 it was 13.1 µM (inactive); in the assay on SF-539, > 100 µM (inactive); in the assay with SR, 2.28 µM (inactive); in the assay on A498 it was > 100 µM (inactive); in the assay on SF-295 it was 37.3 µM (inactive). Also, the GI50 in the assay on MOLT-4 is 12.7 µM (inactive); in the assay with HL-60, 10.2 µM (inactive); with SK-MEL-28, 25.8 µM (inactive); in the assay on A549, > 100 µM (inactive); in the assay on HCT-116, 11 µM (inactive); in the assay with NCI-H460, > 100 µM (inactive). Further, the GI50 with U-251 was 65.6 µM (inactive).

For `NC(=O)c1ncn2c1CNC(=O)C2`, the GI50 was > 100 µM (inactive) with OVCAR-4; > 100 µM (inactive) in the assay with K562; > 100 µM (inactive) in the assay on KM12; more than 100 µM in the assay with HCT-15; > 100 µM (inactive) in the assay on UACC-62; > 100 µM (inactive) in the assay on ACHN. Further, the GI50 in the assay on SK-MEL-2, with SF-539, in the assay on SR, in the assay on A498, with SF-295 and in the assay with MOLT-4 was > 100 µM (inactive) each time. The GI50 in the assay on HL-60, with NCI-H522, in the assay on SK-MEL-28, in the assay with A549, in the assay on NCI-H460 and in the assay with U-251 was > 100 µM (inactive) each time.

Regarding `Nc1nc(Cl)cc(NCCCNc2cc(Cl)nc(N)n2)n1`, the GI50 is > 100 µM (inactive) in the assay on OVCAR-4; > 100 µM (inactive) with K562; > 100 µM (inactive) in the assay on KM12; more than 100 µM in the assay on HCT-15; > 100 µM (inactive) in the assay on UACC-62; > 100 µM (inactive) with SK-MEL-2. Besides, the GI50 in the assay on RPMI-8226, in the assay with SF-539, in the assay on SR, with A498, in the assay with SF-295 and in the assay with MOLT-4 was > 100 µM (inactive) throughout. Besides, the GI50 in the assay on HL-60, in the assay on SK-MEL-28, in the assay on A549, in the assay on HCT-116, in the assay with NCI-H460 and in the assay on U-251 was > 100 µM (inactive) each time.

For the compound `Cc1ccc2c(O)cc(-c3ccc(F)cc3)nc2n1`, the GI50 in the assay on OVCAR-4 is 44.5 µM (inactive); in the assay with K562, 22 µM (inactive); in the assay with KM12, 22.4 µM (inactive); in the assay with HCT-15, 18.5 µM; with UACC-62, 24.1 µM (inactive); with ACHN, 42.6 µM (inactive). The GI50 in the assay on SK-MEL-2 is 45.7 µM (inactive); in the assay with RPMI-8226, 24.9 µM (inactive); with SF-539, 42.5 µM (inactive); in the assay with SR it was 7.4 µM (inactive); in the assay with A498, 25.1 µM (inactive); in the assay with MOLT-4, 26.8 µM (inactive). The GI50 was 14.1 µM (inactive) in the assay on HL-60, 24.9 µM (inactive) in the assay on NCI-H522, 49 µM (inactive) in the assay on SK-MEL-28 and 61.7 µM (inactive) with A549.

For `COc1cc2c(cc1O)CCN(C)[C@H]2Cc1ccc(Oc2c(O)c(OC)cc3c2C[C@H]2c4c(c(OC)c(OC)c(OC)c4-3)CCN2C)cc1` [THALIFABERIDINE], the GI50 with OVCAR-4 was 2.3 µM (inactive); in the assay on K562, 0.966 µM (active); in the assay with KM12 it was 4.11 µM (inactive); in the assay on HCT-15, 4.43 µM; in the assay with UACC-62, 3.97 µM (inactive); in the assay with ACHN, 5.71 µM (inactive). Further, the GI50 in the assay on SK-MEL-2 is 6.82 µM (inactive); in the assay with RPMI-8226, 1.51 µM (inactive); with SF-539, 5.9 µM (inactive); in the assay on SR, 1.61 µM (inactive); in the assay with A498, 7.41 µM (inactive); with SF-295, 5.79 µM (inactive). The GI50 was 3 µM (inactive) in the assay with MOLT-4; 4.24 µM (inactive) in the assay on HL-60; 5.55 µM (inactive) in the assay with NCI-H522; 6.56 µM (inactive) in the assay with SK-MEL-28; 4.94 µM (inactive) with A549; 2.99 µM (inactive) in the assay on HCT-116. Also, the GI50 in the assay on NCI-H460 was 2.09 µM (inactive); in the assay with U-251 it was 4.38 µM (inactive).
